Columns and labels:
[1] = Oral bioavailability and pharmacokinetics in mice (plasma, mass spectroscopy); conditions: for Bioavailability F (AUC(0-inf.)): 30 mg/kg po vs iv; for AUC(0-inf.) (calc.) / AUC(0-t) (obs.) / Cmax (obs.) / Tmax (obs.) / Vd / t½α / t½β: WFI
Experimental: Mice received 30 mg/kg of 1 or 6 intravenously or orally. For each time point blood of 3 mice has been collected, plasma prepared and the concentration of 1 or 6 has been determined by mass spectroscopy. […] Bioavailability and the area under the curve (Auc(0-t) [μg h/L]=AUC) have been determined.

[2] = tested on: human cervix carcinoma xenograft KB-3-1; assay: Antitumor activity in human cervix carcinoma xenograft model (KB-3-1) in vivo; set-up: species or system nude mice; conditions: for Tumor inhibition / Tumor weight: day 30; for Tumor weight: median
Experimental: Tumor bearing mice were randomized on day 8 after KB-3-1 tumor cell inoculation and were distributed to treatment groups of n=7 animals per group. Treatment was started on day 8. The animals were treated orally once daily for 5 consecutive days with 1 or 6. Dosages included 50 and 25% of the Maximum Tolerable Doses (MTD's). Control animals received the vehicle (water). On day 30, the primary tumors were explanted and the tumor weights were determined.

[3] = 25% MTD, 100 mg/kg/day orally once daily for 5 days
[4] = 50% MTD, 200 mg/kg/day orally once daily for 5 days
[5] = 25% MTD, 100 mg/kg/day orally once daily for 5 days from day 8
[6] = 50% MTD, 200 mg/kg/day orally once daily for 5 days from day 8
[7] = mice, 30 mg/kg iv, experiment P06.0068
[8] = mice, 30 mg/kg po, experiment P06.0068
[9] = mice, 30 mg/kg po, experiment P06.0069
[10] = mice, 30 mg/kg iv, experiment P06.0069

Molecule: CCCCCCCCCCCCOCC(COP(=O)(O)OC[C@H]1O[C@@H](n2cnc3c(N)nc(Cl)nc32)C(F)[C@H]1O)OCCCCCCCCCC (stereo partly drawn) [Compound 1, [2-Chloro-9-(2′-deoxy-2′-fluoro-β-D-arabinofuranosyl)adenine]-5′-phosphoric acid-(2-decyloxy-3-dodecyloxy)propyl ester]
- Bioavailability F (AUC(0-inf.)) ([1]; mice, experiment P06.0069): 28.5%
- AUC ([1]; mouse, plasma, po, 30 mg/kg): 88.9 µg·h/mL
- Tumor size versus control animals ([2]; 18 days after termination of treatment (day 30)): significantly (p<0.01) smaller tumors than control animals
- Tumor inhibition [2, 3]: 43%
- Tumor inhibition [2, 4]: 93%
- Tumor weight [2, 5]: 1.60 g
- Tumor weight [2, 6]: 0.19 g

Molecule: CCCCCCCCCCCCSCC(COP(=O)(O)OC[C@H]1O[C@@H](n2cnc3c(N)nc(Cl)nc32)[C@@H](F)[C@@H]1O)OCCCCCCCCCC (stereo partly shown) [Compound 6]
- AUC(0-inf.) (calc.) [1, 7]: 841.7 µg·h/mL
- AUC(0-t) (obs.) [1, 7]: 823.424 µg·h/mL
- Cmax (obs.) [1, 7]: 673387 ng/mL
- Tmax (obs.) [1, 7]: 0.0 h
- Vd [1, 7]: 0.26 L/kg
- t½α [1, 7]: 0.4 h
- t½β [1, 7]: 5.1 h
- AUC after oral application ([1]; mice, 30 mg/kg orally, AUC(0-t)): 213 µg·h/mL
- Bioavailability F (AUC(0-inf.)) ([1]; mice, experiment P06.0068): 28.5%
- AUC(0-inf.) (calc.) [1, 8]: 239.878 µg·h/mL
- AUC(0-t) (obs.) [1, 8]: 236.496 µg·h/mL
- Cmax (obs.) [1, 8]: 19517 ng/mL
- Tmax (obs.) [1, 8]: 4.0 h
- Vd [1, 8]: 1.30 L/kg
- t½α [1, 8]: 0.5 h
- t½β [1, 8]: 7.2 h
- AUC(0-inf.) (calc.) [1, 9]: 225.914 µg·h/mL
- AUC(0-t) (obs.) [1, 9]: 212.685 µg·h/mL
- Cmax (obs.) [1, 9]: 23571 ng/mL
- Tmax (obs.) [1, 9]: 3.0 h
- Vd [1, 9]: 1.10 L/kg
- t½α [1, 9]: 0.9 h
- t½β [1, 9]: 5.7 h
- Tumor inhibition [2, 3]: 31%
- Tumor inhibition [2, 4]: 74%
- Tumor weight [2, 5]: 1.91 g
- Tumor weight [2, 6]: 0.73 g

Molecule: [2-Chloro-9-(2′-deoxy-2′-fluoro-β-D-arabinofuranosyl)adenine]-5′-phosphoric acid-(2-decyloxy-3-dodecyloxy)propyl ester [Compound 1]
- AUC(0-inf.) (calc.) [1, 10]: 320.025 µg·h/mL
- AUC(0-t) (obs.) [1, 10]: 315.695 µg·h/mL
- Cmax (obs.) [1, 10]: 486156 ng/mL
- Tmax (obs.) [1, 10]: 0.02 h
- Bioavailability F (AUC(0-inf.)) ([1]; mice, experiment P06.0069): 28.5%
- AUC(0-inf.) (calc.) [1, 9]: 91.31 µg·h/mL
- AUC(0-t) (obs.) [1, 9]: 88.927 µg·h/mL
- Cmax (obs.) [1, 9]: 13256 ng/mL
- Tmax (obs.) [1, 9]: 2.0 h
